Our source for the IC50 values is patent US8796470B2 (AbbVie Inc., priority 2010, dated 2014).

A word on the IC50: it is the concentration at which inhibition is half-maximal.

For the test, the target named is T1, human Cav2.2 (Homo sapiens, UniProt Q00975).
T1 construct: IMR32 cells endogenously expressing human Cav2.2; endogenous in cells; host or cells: IMR32 cells (human neuroblastoma)
Put plainly: Assessment of calcium channel activity using FLIPR (Ca2+ influx in IMR32 cells). Type of test: cell-based. The following applies: IMR32 cells endogenously expressing human Cav2.2, Calcium 4 dye, 60 minute pre-incubation, 2 μM nifedipine, depolarized with 80 mM KCl, 5 mM CaCl2. As for the experimental part:
(i) In Vitro Methods—Assessment of Calcium Channel Activity Using FLIPR:
IMR32 cells endogenously expressing human Cav2.2 were assayed for Ca^2+ influx using a no-wash calcium indicator dye (Calcium 4 dye: Molecular Probes) and FLIPR technology (Lubin, M. L.; Reitz, T. L.; Todd, M. J.; Flores, C. M.; Qin, N.; Xin, H. Assay and Drug Development Technologies 2006, 4(6), 689-694.). The IMR32 cells were maintained in MEM media containing 10% (v/v) FBS, 1% (v/v) antibiotic/antimitotic, 1% (v/v) sodium pyruvate and 1% (v/v) MEM NEAA. Following dissociation in 0.05% (v/v) trypsin/EDTA, cells were seeded into black 1×96-well plates (Corning Cellbind) at a density of 1−1.2×10^5 cells/well and incubated in the maintenance media above for 48 hours at 37° C. Immediately prior to performing the assay the media was removed and cells were loaded for 1.5 hours with 1×Calcium 4 dye prepared in HBSS (137 mM NaCl, 5.4 mM KCl, 0.25 mM Na2HPO4, 0.44 mM KH2PO4, 1.3 mM CaCl2, 1 mM MgSO4, 4.2 mM NaHCO3) containing HEPES pH 7.4 at room temperature. After dye loading and a subsequent 60 minute pre-incubation with compounds (full log dilutions from 10 μM to 0.1 nM) in the presence of 1.3 mM CaCl2 and 2 μM nifedipine to block endogenous L-type channels, the external Ca^2+ concentration was increased to 5 mM CaCl2 and the cells concomitantly depolarized with 80 mM KCl to assay channel activity. To determine the IC50 values, the percent inhibition of the compound at each concentration was determined relative to the activity in the absence of inhibitor, and data was fitted using non-linear regression sigmoidal dose response curve analysis with GraphPad Prism®.

T1 sequence (Q00975 whole entry): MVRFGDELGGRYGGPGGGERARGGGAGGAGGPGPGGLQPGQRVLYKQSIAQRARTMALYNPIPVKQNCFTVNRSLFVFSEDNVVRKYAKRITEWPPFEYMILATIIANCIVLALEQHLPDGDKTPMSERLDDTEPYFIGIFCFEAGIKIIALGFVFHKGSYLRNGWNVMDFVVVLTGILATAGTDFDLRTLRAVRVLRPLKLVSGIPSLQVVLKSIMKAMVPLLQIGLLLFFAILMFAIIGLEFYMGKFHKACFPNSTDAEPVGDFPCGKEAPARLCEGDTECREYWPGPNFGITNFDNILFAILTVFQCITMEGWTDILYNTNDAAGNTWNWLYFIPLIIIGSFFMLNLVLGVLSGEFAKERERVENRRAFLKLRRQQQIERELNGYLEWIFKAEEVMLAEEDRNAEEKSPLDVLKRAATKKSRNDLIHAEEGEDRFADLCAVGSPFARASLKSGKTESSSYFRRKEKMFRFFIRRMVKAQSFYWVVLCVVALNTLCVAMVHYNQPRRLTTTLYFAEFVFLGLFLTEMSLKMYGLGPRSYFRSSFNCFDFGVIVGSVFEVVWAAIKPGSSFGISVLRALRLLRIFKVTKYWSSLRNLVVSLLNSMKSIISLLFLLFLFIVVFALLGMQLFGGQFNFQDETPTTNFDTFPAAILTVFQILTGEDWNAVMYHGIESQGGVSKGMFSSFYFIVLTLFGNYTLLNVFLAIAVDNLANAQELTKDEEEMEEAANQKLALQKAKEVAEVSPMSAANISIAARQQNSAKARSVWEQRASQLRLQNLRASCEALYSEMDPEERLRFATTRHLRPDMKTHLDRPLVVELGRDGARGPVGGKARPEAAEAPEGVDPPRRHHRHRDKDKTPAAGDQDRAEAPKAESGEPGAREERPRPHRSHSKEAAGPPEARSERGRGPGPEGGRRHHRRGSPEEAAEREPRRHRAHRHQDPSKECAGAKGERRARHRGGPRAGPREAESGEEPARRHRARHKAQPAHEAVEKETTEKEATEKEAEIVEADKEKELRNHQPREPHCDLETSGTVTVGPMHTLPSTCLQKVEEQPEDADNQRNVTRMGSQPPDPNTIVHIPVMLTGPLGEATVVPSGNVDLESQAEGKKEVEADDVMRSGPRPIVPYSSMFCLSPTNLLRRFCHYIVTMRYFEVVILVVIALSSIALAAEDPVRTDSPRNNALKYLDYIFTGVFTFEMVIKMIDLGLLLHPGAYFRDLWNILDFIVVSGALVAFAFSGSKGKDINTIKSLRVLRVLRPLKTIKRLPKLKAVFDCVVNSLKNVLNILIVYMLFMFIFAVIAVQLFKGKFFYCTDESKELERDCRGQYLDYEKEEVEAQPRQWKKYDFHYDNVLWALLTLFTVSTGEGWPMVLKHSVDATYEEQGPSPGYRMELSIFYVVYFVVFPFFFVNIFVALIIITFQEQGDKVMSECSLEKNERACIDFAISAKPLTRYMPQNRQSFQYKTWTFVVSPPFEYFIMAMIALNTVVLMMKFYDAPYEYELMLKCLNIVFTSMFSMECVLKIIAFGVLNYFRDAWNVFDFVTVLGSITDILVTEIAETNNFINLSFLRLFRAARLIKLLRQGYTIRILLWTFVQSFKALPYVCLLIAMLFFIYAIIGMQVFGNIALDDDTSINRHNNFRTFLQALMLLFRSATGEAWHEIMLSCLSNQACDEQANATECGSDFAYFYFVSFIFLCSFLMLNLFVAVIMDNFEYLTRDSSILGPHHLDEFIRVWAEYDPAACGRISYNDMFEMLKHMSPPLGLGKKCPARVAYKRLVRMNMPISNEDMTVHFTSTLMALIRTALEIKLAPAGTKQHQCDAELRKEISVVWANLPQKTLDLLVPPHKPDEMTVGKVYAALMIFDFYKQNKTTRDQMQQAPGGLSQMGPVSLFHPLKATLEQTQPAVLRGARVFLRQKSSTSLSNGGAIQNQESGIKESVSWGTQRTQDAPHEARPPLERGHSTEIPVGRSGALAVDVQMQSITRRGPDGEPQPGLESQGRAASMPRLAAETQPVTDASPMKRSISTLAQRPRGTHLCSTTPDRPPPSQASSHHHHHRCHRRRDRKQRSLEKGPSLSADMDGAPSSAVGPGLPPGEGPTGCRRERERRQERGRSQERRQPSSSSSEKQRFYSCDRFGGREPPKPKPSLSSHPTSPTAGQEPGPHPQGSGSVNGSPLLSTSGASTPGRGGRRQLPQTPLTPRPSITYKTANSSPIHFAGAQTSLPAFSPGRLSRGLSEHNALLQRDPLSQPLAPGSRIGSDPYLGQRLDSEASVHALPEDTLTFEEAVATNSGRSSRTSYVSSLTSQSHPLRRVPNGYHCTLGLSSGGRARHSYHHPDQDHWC
T1 sequence (P54289 25-956 partner limits assumed): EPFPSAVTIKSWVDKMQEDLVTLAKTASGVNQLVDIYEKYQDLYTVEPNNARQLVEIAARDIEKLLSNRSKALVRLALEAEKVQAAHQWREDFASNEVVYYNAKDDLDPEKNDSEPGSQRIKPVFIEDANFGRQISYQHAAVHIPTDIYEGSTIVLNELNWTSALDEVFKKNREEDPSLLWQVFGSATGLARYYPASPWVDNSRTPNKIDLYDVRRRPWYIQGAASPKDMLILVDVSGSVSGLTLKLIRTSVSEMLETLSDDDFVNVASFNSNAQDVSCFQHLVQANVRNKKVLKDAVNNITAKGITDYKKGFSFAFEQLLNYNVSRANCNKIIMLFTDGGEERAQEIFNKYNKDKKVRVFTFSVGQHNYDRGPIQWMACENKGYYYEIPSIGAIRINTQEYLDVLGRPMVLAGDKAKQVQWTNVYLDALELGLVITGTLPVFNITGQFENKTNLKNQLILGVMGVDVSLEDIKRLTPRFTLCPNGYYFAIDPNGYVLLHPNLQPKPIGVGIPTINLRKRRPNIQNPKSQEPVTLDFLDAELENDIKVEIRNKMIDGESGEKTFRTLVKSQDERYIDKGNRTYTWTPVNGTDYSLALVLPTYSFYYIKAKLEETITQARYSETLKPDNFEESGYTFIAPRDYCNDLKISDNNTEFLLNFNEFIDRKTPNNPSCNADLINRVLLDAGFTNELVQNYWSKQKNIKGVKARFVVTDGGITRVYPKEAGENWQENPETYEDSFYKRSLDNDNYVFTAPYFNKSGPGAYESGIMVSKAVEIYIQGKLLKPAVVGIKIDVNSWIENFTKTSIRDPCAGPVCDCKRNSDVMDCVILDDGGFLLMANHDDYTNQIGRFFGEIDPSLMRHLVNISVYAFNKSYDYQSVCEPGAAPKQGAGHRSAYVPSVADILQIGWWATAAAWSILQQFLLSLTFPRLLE
T1 sequence (P54289 957-1103 partner limits assumed): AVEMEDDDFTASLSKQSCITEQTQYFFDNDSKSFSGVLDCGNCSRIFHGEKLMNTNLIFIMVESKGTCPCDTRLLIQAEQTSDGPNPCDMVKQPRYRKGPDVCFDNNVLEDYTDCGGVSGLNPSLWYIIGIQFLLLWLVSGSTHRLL
T1 sequence (P54284 whole entry partner): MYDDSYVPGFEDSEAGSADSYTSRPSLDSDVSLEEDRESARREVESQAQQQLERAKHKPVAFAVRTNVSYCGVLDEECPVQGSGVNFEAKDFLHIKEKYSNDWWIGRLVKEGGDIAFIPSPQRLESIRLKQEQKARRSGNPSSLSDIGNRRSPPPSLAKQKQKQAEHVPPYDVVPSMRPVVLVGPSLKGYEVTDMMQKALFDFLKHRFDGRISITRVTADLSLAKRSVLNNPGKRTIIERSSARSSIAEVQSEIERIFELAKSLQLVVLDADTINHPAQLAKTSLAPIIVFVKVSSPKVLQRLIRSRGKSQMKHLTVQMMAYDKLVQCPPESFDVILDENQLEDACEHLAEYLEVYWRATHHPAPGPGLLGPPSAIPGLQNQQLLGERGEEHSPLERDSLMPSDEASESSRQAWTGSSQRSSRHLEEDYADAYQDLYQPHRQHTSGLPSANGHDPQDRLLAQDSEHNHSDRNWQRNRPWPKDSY

Consider `O=C1CC[C@@H]2CN(c3cccc(C(F)(F)F)n3)C[C@H]12` [Example 32, (3aR,6aS)-2-[6-(trifluoromethyl)pyridin-2-yl]hexahydrocyclopenta[c]pyrrol-4(1H)-one], for which the IC50 was 21.4 µM. Regarding `C[C@@]1(O)CC[C@@H]2CN(c3cccc(C(F)(F)F)n3)C[C@@H]21` [Example 33, (3aR,4R,6aS)-4-methyl-2-[6-(trifluoromethyl)pyridin-2-yl]octahydrocyclopenta[c]pyrrol-4-ol], the IC50 stood at 8.34 µM. For `CC(C)[C@@]1(O)CC[C@@H]2CN(c3cccc(C(F)(F)F)n3)C[C@@H]21` [Example 34, (3aR,4S,6aS)-4-isopropyl-2-[6-(trifluoromethyl)pyridin-2-yl]octahydrocyclopenta[c]pyrrol-4-ol], the half-inhibitory concentration (IC50) came out at 3.05 µM. Turning to `O[C@]1(c2ccccc2)CC[C@@H]2CN(c3cccc(C(F)(F)F)n3)C[C@@H]21` [Example 35, (3aR,4R,6aS)-4-phenyl-2-[6-(trifluoromethyl)pyridin-2-yl]octahydrocyclopenta[c]pyrrol-4-ol], the IC50 came to 2.87 µM. As to `O[C@]1(c2cccc(F)c2)CC[C@@H]2CN(c3cccc(C(F)(F)F)n3)C[C@@H]21` [Example 36, (3aR,4R,6aS)-4-(3-fluorophenyl)-2-[6-(trifluoromethyl)pyridin-2-yl]octahydrocyclopenta[c]pyrrol-4-ol], the IC50 amounted to 6.13 µM. In the case of `O[C@]1(Cc2ccc(F)c(F)c2)CC[C@@H]2CN(c3cccc(C(F)(F)F)n3)C[C@@H]21` [Example 37, (3aR,4S,6aS)-4-(3,4-difluorobenzyl)-2-[6-(trifluoromethyl)pyridin-2-yl]octahydrocyclopenta[c]pyrrol-4-ol] it was 3.72 µM; in that of `CC(c1cccc(F)c1)[C@@]1(O)CC[C@@H]2CN(c3cccc(C(F)(F)F)n3)C[C@@H]21` (stereo partly drawn) [Example 38, (3aR,4S,6aS)-4-[1-(3-fluorophenyl)ethyl]-2-[6-(trifluoromethyl)pyridin-2-yl]octahydrocyclopenta[c]pyrrol-4-ol], 6.1 µM. With `CO[C@H]1CC[C@@H]2CN(c3cccc(C(F)(F)F)n3)C[C@@H]21` [Example 40, (3aR,4S,6aS)-4-methoxy-2-[6-(trifluoromethyl)pyridin-2-yl]octahydrocyclopenta[c]pyrrole] the figure was 3.37 µM; with `CCO[C@H]1CC[C@@H]2CN(c3cccc(C(F)(F)F)n3)C[C@@H]21` [Example 41, (3aR,4S,6aS)-4-ethoxy-2-[6-(trifluoromethyl)pyridin-2-yl]octahydrocyclopenta[c]pyrrole], 3.32 µM.

Consider `CC(C)O[C@H]1CC[C@@H]2CN(c3cccc(C(F)(F)F)n3)C[C@@H]21` [Example 42, (3aR,4S,6aS)-4-isopropoxy-2-[6-(trifluoromethyl)pyridin-2-yl]octahydrocyclopenta[c]pyrrole], for which the IC50 came to 3.82 µM.

Regarding `CC(C)(C)O[C@H]1CC[C@@H]2CN(c3cccc(C(F)(F)F)n3)C[C@@H]21` [Example 43, (3aR,4S,6aS)-4-tert-butoxy-2-[6-(trifluoromethyl)pyridin-2-yl]octahydrocyclopenta[c]pyrrole], the IC50 amounted to 2.54 µM. Consider `Fc1cccc(O[C@H]2CC[C@@H]3CN(c4cccc(C(F)(F)F)n4)C[C@@H]32)c1` [Example 44, (3aR,4S,6aS)-4-(3-fluorophenoxy)-2-[6-(trifluoromethyl)pyridin-2-yl]octahydrocyclopenta[c]pyrrole], for which the half-maximal inhibitory concentration (IC50) was 6.01 µM. In the case of `Fc1cccc(CO[C@H]2CC[C@@H]3CN(c4cccc(C(F)(F)F)n4)C[C@@H]32)c1` [Example 45, (3aR,4S,6aS)-4-[(3-fluorobenzyl)oxy]-2-[6-(trifluoromethyl)pyridin-2-yl]octahydrocyclopenta[c]pyrrole], the IC50 stood at 8.05 µM. In the case of `Fc1cccc(CCO[C@H]2CC[C@@H]3CN(c4cccc(C(F)(F)F)n4)C[C@@H]32)c1` [Example 46], the IC50 was 8.41 µM. Take `O[C@]1(c2ccccc2)CC[C@@H]2CN(Cc3ccccc3)C[C@@H]21` [Example 47, (3aR,4R,6aS)-2-benzyl-4-phenyloctahydrocyclopenta[c]pyrrol-4-ol]: the IC50 was 8.83 µM. In the case of `Fc1cccc(O[C@H]2CC[C@@H]3CN(Cc4ccccc4)C[C@@H]32)c1` [Example 48, (3aR,4S,6aS)-2-benzyl-4-(3-fluorophenoxy)octahydrocyclopenta[c]pyrrole], the IC50 turned out to be 2.95 µM. In the case of `C=C1CC[C@@H]2CN(c3cccc(C(F)(F)F)n3)C[C@H]12` [Example 49, (3aS,6aS)-4-methylene-2-[6-(trifluoromethyl)pyridin-2-yl]octahydrocyclopenta[c]pyrrole], the IC50 turned out to be 24.9 µM. `FC(F)(F)c1cccc(N2C[C@H]3CC[C@H](n4ccnc4)[C@H]3C2)n1` [Example 50, (3aR,4S,6aS)-4-(1H-imidazol-1-yl)-2-[6-(trifluoromethyl)pyridin-2-yl]octahydrocyclopenta[c]pyrrole]: the IC50 stood at 4.3 µM. For the compound `FC(F)(F)c1cccc(N2C[C@H]3CC[C@H](n4cccn4)[C@H]3C2)n1` [Example 51, (3aR,4S,6aS)-4-(1H-pyrazol-1-yl)-2-[6-(trifluoromethyl)pyridin-2-yl]octahydrocyclopenta[c]pyrrole], the IC50 stood at 1.39 µM.

With `FC(F)(F)c1cccc(N2C[C@H]3CC[C@H](n4cc(Cl)cn4)[C@H]3C2)n1` [Example 52, (3aR,4S,6aS)-4-(4-chloro-1H-pyrazol-1-yl)-2-[6-(trifluoromethyl)pyridin-2-yl]octahydrocyclopenta[c]pyrrole], the half-maximal inhibitory concentration (IC50) was 7.39 µM. With `FC(F)(F)c1cccc(N2C[C@H]3CC[C@H](OC[C@@H]4CCCN4)[C@H]3C2)n1` [Example 53, (3aR,4S,6aS)-4-[(2S)-pyrrolidin-2-ylmethoxy]-2-[6-(trifluoromethyl)pyridin-2-yl]octahydrocyclopenta[c]pyrrole], the IC50 came to 0.66 µM. In the case of `CC(C)(C)OC(=O)N1C[C@H]2CC[C@H](C(=O)Nc3cccc(F)c3)[C@H]2C1` [Example 54], the IC50 came to 11.6 µM. In the case of `O=C(Nc1cccc(F)c1)[C@H]1CC[C@@H]2CNC[C@@H]21` [Example 55, (3aS,4S,6aS)—N-(3-fluorophenyl)octahydrocyclopenta[c]pyrrole-4-carboxamide], the concentration for half-maximal inhibition (IC50) was over 30 µM. In the case of `O=C(Nc1cccc(F)c1)[C@H]1CC[C@@H]2CN(c3cccc(C(F)(F)F)n3)C[C@@H]21` [Example 56, (3aS,4S,6aS)—N-(3-fluorophenyl)-2-[6-(trifluoromethyl)pyridin-2-yl]octahydrocyclopenta[c]pyrrole-4-carboxamide], the IC50 was 8.9 µM. Consider `FC(F)(F)c1cccc(N2C[C@H]3CC[C@H](n4cnc(-c5ccc(Cl)cc5)c4)[C@H]3C2)n1` [Example 57, (3aR,4S,6aS)-4-[4-(4-chlorophenyl)-1H-imidazol-1-yl]-2-[6-(trifluoromethyl)pyridin-2-yl]octahydrocyclopenta[c]pyrrole], for which the concentration for half-maximal inhibition (IC50) amounted to 5.79 µM. Turning to `FC(F)(F)c1cccc(N2C[C@H]3CC[C@H](n4cnc(-c5ccccc5)c4)[C@H]3C2)n1` [Example 58, (3aR,4S,6aS)-4-(4-phenyl-1H-imidazol-1-yl)-2-[6-(trifluoromethyl)pyridin-2-yl]octahydrocyclopenta[c]pyrrole], the 50% inhibitory concentration (IC50) was determined as 3.15 µM. With `FC(F)(F)c1cccc(N2C[C@H]3CC[C@H](n4cnc5ccccc54)[C@H]3C2)n1` [Example 60, 1-{(3aR,4S,6aS)-2-[6-(trifluoromethyl)pyridin-2-yl]octahydrocyclopenta[c]pyrrol-4-yl}-1H-benzimidazole] the figure was 1.96 µM.
